Results on 57 compounds are retold here after patent US5688938A, “Calcium receptor-active molecules” (priority 1995, dated 1997).

SMILES strings stand for the structures. Structures can show the parent of a compound that is named as a salt. Bounds are passed on as bounds.

One test has as its target T1, parathyroid cell calcium receptor (Bos taurus, UniProt P35384).
T1 sequence (P35384 21-1085 limits assumed): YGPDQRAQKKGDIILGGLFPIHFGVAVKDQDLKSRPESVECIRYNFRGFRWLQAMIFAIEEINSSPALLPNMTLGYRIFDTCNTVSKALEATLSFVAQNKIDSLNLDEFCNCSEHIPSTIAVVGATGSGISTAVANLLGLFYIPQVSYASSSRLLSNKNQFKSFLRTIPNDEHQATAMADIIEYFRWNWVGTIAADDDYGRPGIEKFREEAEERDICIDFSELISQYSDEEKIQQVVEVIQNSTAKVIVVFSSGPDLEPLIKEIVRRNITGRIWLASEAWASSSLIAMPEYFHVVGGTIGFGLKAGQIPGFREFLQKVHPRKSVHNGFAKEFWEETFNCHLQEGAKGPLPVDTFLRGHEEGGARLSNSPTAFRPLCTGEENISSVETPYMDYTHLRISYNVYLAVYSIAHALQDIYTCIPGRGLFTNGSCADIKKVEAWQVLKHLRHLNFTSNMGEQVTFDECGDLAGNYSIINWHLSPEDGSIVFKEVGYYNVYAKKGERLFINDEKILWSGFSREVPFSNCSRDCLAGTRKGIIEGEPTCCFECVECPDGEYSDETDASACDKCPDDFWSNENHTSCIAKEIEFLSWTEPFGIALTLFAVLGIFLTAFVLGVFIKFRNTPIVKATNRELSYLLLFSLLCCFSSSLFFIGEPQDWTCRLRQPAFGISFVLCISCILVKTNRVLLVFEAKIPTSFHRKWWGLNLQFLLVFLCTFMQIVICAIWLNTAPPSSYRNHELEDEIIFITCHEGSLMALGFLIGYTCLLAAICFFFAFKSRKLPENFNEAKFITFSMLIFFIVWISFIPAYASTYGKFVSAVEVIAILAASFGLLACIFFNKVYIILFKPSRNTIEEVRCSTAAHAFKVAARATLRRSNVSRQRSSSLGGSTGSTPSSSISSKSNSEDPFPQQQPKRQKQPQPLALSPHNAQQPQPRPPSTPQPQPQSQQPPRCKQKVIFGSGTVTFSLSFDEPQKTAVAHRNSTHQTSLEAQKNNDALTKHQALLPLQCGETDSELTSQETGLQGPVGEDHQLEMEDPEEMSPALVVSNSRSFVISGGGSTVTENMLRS
Nature of the test: cell-based. In kind it is cell-based.
Conditions: not given
As for `CCCCCCCCCCCCCC(=O)O[C@@H]1[C@@H](C)[C@@]2(O)[C@@H](C=C(CO)C[C@]3(O)C(=O)C(C)=C[C@@H]23)[C@@H]2C(C)(C)[C@]12OC(C)=O` [PMA, phorbol myristate acetate, reference compound], the “effect on mobilization of intracellular Ca^2+ elicited by molecular polycations” value was “depressed”.

The same test, now with this note: 1 μM.
On to `CC1=C(C(=O)OC(C)C)C(c2cccc3nonc23)C([N+](=O)[O-])=C(C)N1` (single isomer, unassigned; (-)) [(-) 202-791, reference compound], for which the “effect on basal [Ca^2+]i or increases evoked by extracellular Ca^2+” value was “None of the dihydropyridines tested”.

As to `COC(=O)C1=C(C)NC(C)=C([N+](=O)[O-])C1c1ccccc1C(F)(F)F` (stereo not drawn) [BAY K 8644, reference compound], the “effect on basal [Ca^2+]i or increases evoked by extracellular Ca^2+” value is recorded as “None of the dihydropyridines tested”.

The test is the same for the next values; noted with them: 100 μM.
Turning to `COc1ccc([C@@H]2Sc3ccccc3N(CCN(C)C)C(=O)[C@@H]2OC(C)=O)cc1` [diltiazem, reference compound], the “effective at 100 μM (as verapamil and D-600)” value was “effective”.

Still in this test, the particulars now being: 400 μM.
As for `N=C(N)NCCC[C@H](N)C(=O)NCCCNCCCNCCCCCNC(=O)[C@H](CC(N)=O)NC(=O)Cc1ccc(O)cc1O` [Argiotoxin-636, reference compound], the “increases in [Ca^2+]i” value is on record as “did not elicit increases” and the “potentiation of cytosolic Ca^2+ responses to extracellular Ca^2+” value was “did potentiate”.

Staying with this test, now noted: 500 μM.
`CCCC(=O)N[C@@H](Cc1ccc(O)cc1)C(=O)NCCCCNCCCNCCCN` [Philanthotoxin-433, reference compound]: the “effect on intracellular Ca^2+” value is “without effect”.

Still in this test, the particulars now being: 100 to 300 μM.
`N=C(N)NCCC[C@H](N)C(=O)NCCCNCCCNCCCCCNC(=O)[C@H](CC(N)=O)NC(=O)Cc1ccc(O)cc1O` [Argiotoxin-636, reference compound]: the “increases in [Ca^2+]i” value is “had no effect”.

Still in this test, the particulars now being: Table 6; bovine parathyroid cells; read-out: EC50 PARATHYROID
The term EC50 denotes the concentration giving half of the maximal effect. Turning to `COc1cccc([C@H](C)NCCCc2ccccc2)c1` [NPS S-467], the EC50 was above 30000 nM.

Regarding `C[C@@H](NCCC(c1ccccc1)c1ccccc1)c1ccccc1` [R-Fendiline], the concentration for a half-maximal effect (EC50) came to 9000 nM.

Still in this test, the particulars now being: Table 7; parathyroid cell calcium receptor; read-out: EC50.
`COc1ccc(OC)c([C@@H](C)NCCCc2ccccc2)c1` [7Z(R-)]: the EC50 is above 30000 nM.

With `COc1ccc(OC)c([C@H](C)NCCCc2ccccc2)c1` [7Z(S-)], the EC50 is above 100000 nM.

Take `c1ccc(CNCCC(c2ccccc2)c2ccccc2)cc1` [Compound 1A]: the EC50 turned out to be 166000 nM.

Consider `CC(NCCCc1ccccc1)c1ccccc1` (stereo not drawn) [Compound 1D], for which the concentration for a half-maximal effect (EC50) amounted to 48000 nM.

Consider `CCC(NCCC(c1ccccc1)c1ccccc1)c1ccccc1` (stereo not drawn) [Compound 1E], for which the EC50 is 123000 nM.

In the case of `CC(NCCCCc1ccccc1)c1ccccc1` (stereo not drawn) [Compound 1S], the EC50 came out at 128000 nM.

As for `C[C@H](NCCCc1ccccc1)C1CCCCC1` [Compound 7Y], the EC50 is above 30000 nM.

Take `COc1cccc([C@H](C)NCCCc2ccc(C)cc2)c1` [Compound 8Y]: the EC50 is above 30000 nM.

As to `COc1cccc([C@H](C)NCCCc2ccc(OC)c(OC)c2)c1` [Compound 20K], the EC50 is above 30000 nM.

As to `COc1cccc([C@H](C)NCCCc2ccccc2)c1` [NPS S-467], the EC50 is above 30000 nM.

`C[C@@H](NCCC(c1ccccc1)c1ccccc1)c1ccccc1` [R-Fendiline]: the EC50 stood at 9000 nM.

Regarding `C[C@H](NCCC(c1ccccc1)c1ccccc1)c1ccccc1` [S-Fendiline], the EC50 was above 15000 nM.

Still in this test, the particulars now being: Table 8 (arylalkylamine calcimimetics); parathyroid cell calcium receptor; read-out: EC50.
As for `COc1cccc([C@@H](C)NC2CCc3ccccc3C2)c1` (stereo partly drawn) [5W/5Y], the EC50 was found to be 3600 nM.

Turning to `CC(NCCC(c1ccccc1)c1ccccc1)c1cccc2ccccc12` (stereo not drawn) [Compound 3U], the EC50 was 640 nM.

For the compound `COc1cccc([C@@H](C)NCCCc2cccc(F)c2)c1` [Compound 4N], the EC50 amounted to 800 nM.

As to `COc1cccc([C@@H](C)NCCCc2ccc(F)cc2)c1` [Compound 4P], the 50% effective concentration (EC50) stood at 1600 nM.

In the case of `COc1cccc(C(C)NCCC(C)c2ccccc2Cl)c1` (stereo not drawn) [Compound 4Y], the EC50 came out at 1300 nM.

As for `COc1cccc(C(C)NC(C)c2cccc3ccccc23)c1` (stereo not drawn) [Compound 6E], the EC50 was 2700 nM.

Consider `CCOc1cccc([C@@H](C)NCCCc2ccccc2)c1` [Compound 6R], for which the EC50 was determined as 3400 nM.

For the compound `CCOc1cccc([C@@H](C)NCCCc2ccccc2Cl)c1` [Compound 6T], the EC50 was 2900 nM.

With `COc1cccc([C@@H](C)NCCCc2ccccc2OC)c1` [Compound 8U, (R)-(+)-N-3-(2-Methoxyphenyl)-1-propyl-3-methoxy-α-methylbenzylamine hydrochloride], the EC50 turned out to be 440 nM.

For the compound `COc1cccc([C@@H](C)NCCCc2ccc(C)cc2)c1` [Compound 8X], the EC50 stood at 760 nM.

`C[C@@H](NCc1ccc2ccccc2c1)c1cccc2ccccc12` [Compound 9C]: the EC50 was 600 nM.

Consider `CC(C)C(N[C@H](C)c1cccc2ccccc12)c1ccc2ccccc2c1` (stereo partly drawn) [Compound 10F], for which the EC50 was determined as 890 nM.

`CCOC(=O)COc1cccc([C@@H](C)NCc2ccc3ccccc3c2)c1` [Compound 11D]: the EC50 was determined as 1800 nM.

For `COc1cccc([C@@H](C)NCCCc2ccccc2C)c1` [Compound 12U, (R)-N-3-(2-Methylphenyl)-1-propyl-3-methoxy-α-methylbenzylamine hydrochloride], the EC50 was determined as 1200 nM.

Consider `COc1cccc([C@@H](C)NCCCc2cccc(C)c2)c1` [Compound 12V, (R)-N-3-(3-Methylphenyl)-1-propyl-3-methoxy-α-methylbenzylamine hydrochloride], for which the EC50 amounted to 420 nM.

In the case of `CCCOc1ccc(CN[C@H](C)c2cccc3ccccc23)cc1` [Compound 13Q], the EC50 is around 800 nM.

`C[C@@H](NCc1ccc(Cl)c(Cl)c1)c1cccc2ccccc12` [Compound 13R]: the EC50 worked out at 250 nM.

For `C[C@@H](NCc1ccc(C(F)(F)F)cc1)c1cccc2ccccc12` [Compound 13S], the EC50 was below 130 nM.

As for `COc1ccc(CN[C@H](C)c2cccc3ccccc23)cc1` [Compound 13U], the EC50 is 190 nM.

Regarding `C[C@@H](NCc1ccc2c(c1)OCCO2)c1cccc2ccccc12` [Compound 13X], the EC50 is below 750 nM.

`COc1ccc([C@H](C)N[C@H](C)c2cccc3ccccc23)cc1` [Compound 14V]: the EC50 turned out to be 1700 nM.

`COc1ccc(CN[C@H](C)c2cccc3ccccc23)cc1C` [Compound 16Q]: the EC50 was found to be 40 nM.

As for `C[C@@H](NCc1ccc2c(c1)OCO2)c1cccc2ccccc12` [Compound 16R], the EC50 was 360 nM.

With `COc1ccc(CN[C@H](C)c2cccc3ccccc23)cc1F` [Compound 16T], the EC50 amounted to 40 nM.

`Cc1ccc(CN[C@H](C)c2cccc3ccccc23)cc1C` [Compound 16V]: the EC50 was below 130 nM.

Turning to `CCOc1ccc(CN[C@H](C)c2cccc3ccccc23)cc1` [Compound 16W], the EC50 was 590 nM.

In the case of `CSc1ccc(CN[C@H](C)c2cccc3ccccc23)cc1` [Compound 16X], the EC50 was found to be 100 nM.

Consider `COc1ccc([C@@H](C)N[C@H](C)c2cccc3ccccc23)cc1Cl` [Compound 17X, (R,R)-N-(1-Ethyl-4'-methoxy-3'-chlorophenyl)-1-(1-naphthylethyl)amine], for which the EC50 stood at 20 nM.

With `COc1cccc([C@@H](C)NC2CCN(Cc3ccccc3)CC2)c1` [Compound 20F], the EC50 was below 1000 nM.

With `COc1ccc(CCCN[C@H](C)c2cccc(OC)c2)cc1` [Compound 20I], the EC50 is above 1000 nM.

`COc1cccc([C@@H](C)NCCCc2ccc(OC)c(OC)c2)c1` [Compound 20J]: the EC50 was above 3000 nM.

For `COc1cccc(C(C)NC(C)CCc2ccccc2)c1` (stereo not drawn) [Compound 20R], the concentration for a half-maximal effect (EC50) came to 2400 nM.

Consider `CCC(CCc1ccccc1)NC(C)c1cccc(OC)c1` (stereo not drawn) [Compound 20S], for which the EC50 was found to be 4200 nM.

With `COc1cccc([C@@H](C)N[C@H](C)CCc2ccccc2)c1` [Compound 21D], the EC50 was determined as 3000 nM.

For the compound `C[C@H](CCc1ccccc1)N[C@H](C)c1cccc2ccccc12` [Compound 21F], the concentration for a half-maximal effect (EC50) is 380 nM.

With `C[C@@H](CCc1ccccc1)N[C@H](C)c1cccc2ccccc12` [Compound 21G], the concentration giving a half-maximal response (EC50) was 1100 nM.

For the compound `COc1cccc([C@@H](C)NCCCc2ccccc2C(F)(F)F)c1` [Compound 21O], the EC50 is 260 nM.

Regarding `COc1cccc([C@@H](C)NCCCc2ccc(C(F)(F)F)cc2)c1` [Compound 21Q], the EC50 worked out at 1400 nM.

The same test, now with this note: bovine parathyroid cells, or Xenopus oocytes expressing calcium receptors.
As for `N[C@@]1(C(=O)O)CC[C@@H](C(=O)O)C1` (relative stereo) [trans-ACPD, reference compound], the “response to mGluR agonists” value is recorded as “did not respond”.

The test is the same for the next values; noted with them: in words.
As for `CC(NCCCc1ccccc1)c1ccccc1` (stereo not drawn) [Compound 1D], the relative potency result was “nearly as potent as the parent molecule”.

Still in this test, the particulars now being: parathyroid cell calcium receptor; […]; read-out: EC50.
As to `COc1cccc([C@@H](C)NCCCc2ccccc2OC)c1` [Compound 8U, (R)-(+)-N-3-(2-Methoxyphenyl)-1-propyl-3-methoxy-α-methylbenzylamine hydrochloride], the EC50 is below 5000 nM.

Take `COc1cccc([C@@H](C)NCCCc2ccccc2C)c1` [Compound 12U, (R)-N-3-(2-Methylphenyl)-1-propyl-3-methoxy-α-methylbenzylamine hydrochloride]: the EC50 is below 5000 nM.

As for `COc1cccc([C@@H](C)NCCCc2cccc(C)c2)c1` [Compound 12V, (R)-N-3-(3-Methylphenyl)-1-propyl-3-methoxy-α-methylbenzylamine hydrochloride], the EC50 is below 5000 nM.

With `COc1ccc([C@@H](C)N[C@H](C)c2cccc3ccccc23)cc1Cl` [Compound 17X, (R,R)-N-(1-Ethyl-4'-methoxy-3'-chlorophenyl)-1-(1-naphthylethyl)amine], the EC50 is below 5000 nM.
